Earlier results, collected in patent publication US20060270852A1, “PREPARATION OF BISQUINOLINE COMPOUNDS” (priority 2005, published 2006).
Like-named read-outs stand apart in the source and are kept apart here.

Experiments:
[1] = not given; remark: listed apart in the source
[2] = tested on: falciparum and vivax malaria

| solubility in water | dissociation constant [pKa] [1] | solubility in water (at neutral and alkaline pH) | Compound | efficacy compared with chloroquine ([2]; against falciparum and vivax malaria) | tolerability compared with chloroquine ([2]; in vivo) |
| --- | --- | --- | --- | --- | --- |
| soluble in water |  |  | Clc1ccc2c(N3CCN(CCCN4CCN(c5ccnc6cc(Cl)ccc56)CC4)CC3)ccnc2c1 [Piperaquine phosphate] |  |  |
|  | 8.92 | only sparingly soluble in water | Clc1ccc2c(N3CCN(CCCN4CCN(c5ccnc6cc(Cl)ccc56)CC4)CC3)ccnc2c1 [piperaquine, 1,3-Bis-[4-(7′-chloro-quinoline-4′)piperazine-1]propane] | at least as effective as | better tolerated than |
